Reference: US20210030870A1, “MODULATION OF P62 AND STING ACTIVITY” (priority 2018, published 2021)
“Also recorded” adds a separate entry of the source.

How the values were obtained:
STING-pathway [1] = test: Functional type I IFN assay (HEK-Blue IFN-α/β reporter) on supernatants of peptide-pretreated PBMCs; format: cell-based, human; settings: for type I IFN: PBMCs, peptide pre-activation (25 μg/ml), co-stimulation with HT-DNA
STING-pathway [2] = test: Functional type I IFN assay on supernatants of peptide-pretreated THP1 cells; format: cell-based, human; settings: peptide pre-activation (10 μg/ml), co-stimulation with HT-DNA
STING-pathway [3] = test: TNF-α ELISA on supernatants of peptide-pretreated PBMCs stimulated with STING agonists; format: cell-based; settings: human primary PBMCs, peptide pre-activation (25 μg/ml, 1 hour), co-stimulation with cGAMP or HT-DNA, supernatants after 20 hours
STING-pathway [4] = test: CXCL10 ELISA on supernatants of peptide-pretreated PMA-differentiated THP1 cells; format: cell-based; settings: human PMA-differentiated THP1 cells, peptide 10 μg/ml, HT-DNA treatment; listed as SEQ ID NO: 9
DNA-cGAS STING pathway [5] = test: Type I IFN bioassay, THP1 cells stimulated with DNA or polyIC with/without PEP302; format: cell-based, human
Description: Bioactive human type I IFN was measured on cell supernatants by use of HEK-Blue™ IFN-a/b cells as reporter cells according to the manufacturer instructions (InvivoGen).

DNA-cGAS STING pathway [6] = test: CXCL10 ELISA, THP1 cells with PEP302; format: cell-based, human; settings: DNA stimulation
Description: Protein levels of the cytokines CXCL10 and TNF-α in supernatants, were measured using ELISA kits from R and D Systems (CXCL10; DY266) and (TNF-α; DY210) following the manufacturer's instructions.

STING = test: Western blotting of THP1 cells treated with PEP302; format: cell-based, human
Description: Whole-cell extracts or immunoprecipitation samples were analyzed by immunoblotting. Samples were diluted in XT sample buffer and XT reducing agent and ran on a SDS—PAGE (Criterion™ TGX™). Trans-Blot Turbo™ Transfer System was used for the transfer of proteins to PVDF membranes (all reagents Bio-Rad). The membrane was blocked in 5% Difco™ skim milk (BD) or 5% bovine serum albumin (BSA) (Sigma). For detection of STING dimerization, samples were prepared for electrophoresis using non-reducing RIPA lysis buffer with 0.2% SDS and complete mini inhibitor (Sigma). The antibodies used for immunoblotting were as follows: rabbit anti-pSTING (S366) (Cell Signaling Technology, #85735), rabbit anti-pTBK1 (Ser172) (Cell Signaling, D52C2/#5483), rabbit anti-phospho p62 (Cell Signalling), Guinea pig anti-p62 (Progen), rabbit anti-STING (Cell Signalling) and mouse anti-b-actin (Abcam, AC-15/ab49900).

[7] = THP1 cells treated with peptide
[8] = THP1 cells, after DNA and cGAMP stimulation, Western blotting

## SLTVKAYLLGKEDAAREIRRGRKKRRQRRRPQ (listed as Homo sapiens) [PEP300, N-terminal fragment peptide of human P62 C-terminally conjugated to TAT]
STING-pathway [1]
  type I IFN: significant suppression
STING-pathway [1]; listed as SEQ ID NO: 8
  type I IFN: capable of reducing
STING-pathway [2]
  type I IFN: significant suppression
STING-pathway [2]; listed as SEQ ID NO: 8
  type I IFN: capable of reducing

## DLCSVCEGKGLHRGHTKLAFGRKKRRQRRRPQ (listed as Homo sapiens) [PEP307, ZZ domain fragment peptide of human P62 C-terminally conjugated to TAT]
STING-pathway [1]
  type I IFN: significant suppression
STING-pathway [1]; listed as SEQ ID NO: 10
  type I IFN: capable of reducing
STING-pathway [2]
  type I IFN: significant suppression
STING-pathway [2]; listed as SEQ ID NO: 10
  type I IFN: capable of reducing

## EELTMAMSYVKDDIFRIYIKGRKKRRQRRRPQ (listed as Homo sapiens) [PEP305, PB1 domain fragment peptide of human P62 C-terminally conjugated to TAT]
STING-pathway [3]
  cytokine response of TNF-alpha: enhance
STING-pathway [3]; listed as SEQ ID NO: 9
  cytokine response of TNF-alpha: very efficient in increasing
STING-pathway [1]; human primary PBMCs, peptide pre-activation (25 μg/ml, 1 hour), co-stimulation with cGAMP or HT-DNA
  type I Interferon: suppress
STING-pathway [4]
  CXCL10 expression: very efficient in increasing; also recorded: increase

## PGPCERLLSRVAALFPALRP GRKKRRQRRRPQ (PGPCERLLSRVAALFPALRPGRKKRRQRRRPQ; listed as Homo sapiens) [PEP302, PB1 domain fragment peptide of human P62]
DNA-cGAS STING pathway [5]; THP1 cells stimulated with DNA or polyIC with/without peptide
  pathway specificity of type I IFN inhibition (DNA versus polyIC stimulation): may specifically target the DNA-cGAS STING pathway and not the polylC pathway
DNA-cGAS STING pathway [5]; THP1 cells, DNA stimulation
  DNA-activated IFN (type I IFN bioassay): reduces
DNA-cGAS STING pathway [6]
  DNA-STING-induced CXCL10 production: reduces; also recorded: can inhibit
STING; [7]
  STING dimerization: may induce
  autophagy (LC3 turnover): may induce; also recorded: seems to constitutively induce
  p62 dimerization: may induce; also recorded: induce p62 dimerization
STING; THP1 cells treated with peptide alone
  ubiquitination of STING: may also induce; also recorded: potentially ubiquitination of STING
STING; [8]
  phosphorylation of TBK1: significantly reduced; also recorded: inhibit/reduce
  phosphorylation of p62: significantly reduced; also recorded: inhibit/reduce
STING; THP1 cells, after DNA stimulation, Western blotting
  phosphorylation of STING: can inhibit; also recorded: may inhibit
STING; THP1 cells, after cGAMP stimulation, Western blotting
  phosphorylation of STING (phospho-STING): significantly reduce; also recorded: may inhibit
